In assay [1] the test system is DMM-resistant isolates of Pseudoperonospora cubensis. Briefly: Control of DMM-resistant isolates of Pseudoperonospora cubensis on intact cucumber plants, ED90 and Wadley synergy. Format: in vivo. The conditions noted are these: for ED90 observed Trial 1: Trial 1, downy mildew lesions per leaf; for ED90 observed Trial 2: Trial 2, downy mildew lesions per leaf. The protocol: (§1) A synergistic effect exists whenever the action of an active ingredient combination is greater than the sum of the actions of the individual components. The Wadley Method is well-known method for determining whether synergy exists. In the Wadley Method, synergistic activity is determined from dose, response curves. With this method, the efficacy of the active ingredient (“a.i.”) is determined by comparing the degree of fungal attack on treated plants with that on untreated, similarly inoculated and incubated check plants. Each a.i. is generally tested at multiple (e.g., six) concentrations and dose response curves are generated. The dose response curves are used to establish the ED90 (i.e., estimated concentration required to produce 90% killing of fungi) of the individual compounds as well as of the combinations (ED90observed). The experimentally found values of the mixture at a given weight ratio are compared with the values that would have been found where only a complementary efficacy of the components was present (ED90 (A+B) expected). The ED90 (A+B) expected is generally calculated according to Wadley (Levi et al., EPPO-Bulletin 16, 1986, 651-657) or (Wadley, F. M., U.S. Dep. Agric., Agric. Res. Adm., Bur. Entomol. And Plant Quar. ET-223, 1945, 8) as follows:
(§2) wherein a and b are the weight ratios of the compounds A and B in the mixture and the indexes (A), (B) and (A+B) refer to the observed ED90values of the compounds A, B or the A+B mixture thereof. The ratio ED90 (A+B)expected/ED90 (A+B)observed expresses the level of the synergistic factor (SF).
A trial was conducted to estimate the synergistic interaction between three fungicides in controlling DMM-resistant isolates of P. cubensis, the causal agent of downy mildew in cucurbits.
Commercially available compositions of dimethomorph (Sphinx 50 SC), folpet (Folpan 80 WDG) and fosetyl-Al (Aliette 80 WDG), as well as 80 wt. %, WDG composition comprising a combination of dimethomorph, folpet and fosetyl-Al (mixed at a weight ratio of 1:5:10) were suspended in water, diluted to a series of concentrations in water, and sprayed initial run off.
Two isolates of P. cubensis were used. Intact, two-true leaf cucumber plants (n=2) were used for inoculation. Inoculation and incubation were conducted according to the description in example 1, except that sporangial concentration was adjusted to 2×103 sporangia/ml. Disease records were taken by counting the number of downy mildew lesions per leaf (n=4). Data analysis was done as described in Example 1.

For a further assay, the system named is Plasmopara viticola. Briefly: Control of Plasmopara viticola (downy mildew) on detached grapevine leaves, ED90 by Probit analysis, synergy by Wadley method. Format: in vivo. The conditions noted are these: detached grape leaves, spray before inoculation, 7-10 days after inoculation. The protocol: as §1, §2
A trial was conducted to in order to estimate the synergistic interaction between three fungicides in controlling the oomycete, Plasmopara viticola, the downy mildew causal agent, in grapevines.
Commercially available compositions of dimethomorph (Sphinx 50 SC), folpet (Folpan 80 WDG) and fosetyl-Al (Aliette 80 WDG), as well as 80 wt. %, WDG composition comprising a combination of dimethomorph, folpet and fosetyl-Al (mixed at a weight ratio of 1:5:10) were suspended in water, diluted to a series of concentrations in water and sprayed onto the lower leaf surface of detached grape leaves to initial run off.
Two cultivars of grapevines (Vitis vinifera) were used: Carinian and Merlo, both susceptible to P. viticola. Grafted Carinian plants were grown in pots in the greenhouse whereas Merlo vines were grown in the field. Plants were regularly sprayed with appropriate fungicides to protect them against powdery mildew (Uncinulla necator). In total, five experiments were conducted, three with Carinian and two with Merlo.
The 3rd and the 4th leaf from top of a branch were detached, sprayed on lower leaf surface with a fungicide, three leaves per fungicide per concentration per cultivar, and placed lower surface uppermost on moist filter paper in a plastic tray (70×50×5 cm). Normally, one tray served for one cultivar and one fungicide and contained 27 leaves (21 leaves treated with 7 doses of a fungicide+6 control untreated leaves).
Trays with the sprayed leaves were placed in a ventilated hood for about one hour until the spray droplets dried off and thereafter were inoculated with the pathogen.
An isolate of P. viticola was propagated on detached leaves of Carinian by repeated inoculations. Sporangia were harvested from freshly sporulating leaves into ice-cold distilled water, their concentration adjusted to 1×10^5 sporangia/ml. Sporangial suspension was sprayed onto the lower surface of the treated and control leaves laying in the trays. Trays were thereafter wrapped with cellophane bags, kept at 15° C. in the dark for 20 h and then at 20° C. under 14 h light photoperiod. At 7-10 days after inoculation, disease development was recorded by visual estimation of the leaf area occupied with sporophores and spores of P. viticola.
Mean sporulating leaf area was then calculated for each treatment (n=3, n for control=6). A mean value was calculated for all four controls in an experiment. […]

For `COc1ccc(C(=CC(=O)N2CCOCC2)c2ccc(Cl)cc2)cc1OC` [Dimethomorph, dimethomorph], in assay [1], the “ED90 observed Trial 1” value worked out at 701 µg/mL and the “ED90 observed Trial 2” value stood at 424 µg/mL. In the assay on Plasmopara viticola, the “ED90 observed Trial 1” value was found to be 2.42 µg/mL, the “ED90 observed Trial 2” value came out at 1.81 µg/mL, the “ED90 observed Trial 3” value amounted to 0.91 µg/mL and the “ED90 observed Trial 4” value came out at 3.95 µg/mL. Moreover, the “ED90 observed Trial 5” value in the assay on Plasmopara viticola stood at 2.25 µg/mL.
Take `O=C1c2ccccc2C(=O)N1SC(Cl)(Cl)Cl` [Folpet, folpet]: in assay [1], the “ED90 observed Trial 1” value turned out to be 254 µg/mL and the “ED90 observed Trial 2” value stood at 81 µg/mL. Besides, in the assay with Plasmopara viticola, the “ED90 observed Trial 1” value is 65.8 µg/mL, the “ED90 observed Trial 2” value worked out at 30.6 µg/mL, the “ED90 observed Trial 3” value was determined as 57.1 µg/mL and the “ED90 observed Trial 4” value was determined as 61.8 µg/mL. For the same compound, the “ED90 observed Trial 5” value with Plasmopara viticola worked out at 39.8 µg/mL.
With `CCO[PH](=O)O` [Fosetyl-Al, fosetyl-Al], in assay [1], the “ED90 observed Trial 1” value was 2088 µg/mL and the “ED90 observed Trial 2” value came to 508 µg/mL. In addition, in the assay on Plasmopara viticola, the “ED90 observed Trial 1” value was 936 µg/mL, the “ED90 observed Trial 2” value came to 1522 µg/mL, the “ED90 observed Trial 3” value worked out at 611 µg/mL and the “ED90 observed Trial 4” value stood at 274 µg/mL. Besides, in the assay with Plasmopara viticola, the “ED90 observed Trial 5” value was 297 µg/mL.

(Values after patent US20130225535A1, “SYNERGISTIC FUNGICIDAL COMPOSITION” (MAKHTESHIM CHEMICAL WORKS LTD., priority 2010, published 2013).)
